Experimental data as given in patent publication US20260256925A1, “INDAZOLE DERIVATIVES AS ESTROGEN RECEPTOR DEGRADERS” (REGENTS OF THE UNIVERSITY OF MICHIGAN, priority 2022, published 2026).

Columns and labels:
CRBN/DDB1 = molecular target: T1, CRBN/DDB1 (Homo sapiens, UniProt Q96SW2); assay type: binding; details: HTRF, Cy5-labeled Thalidomide probe
T1 construct: purchased Wuxi RP210521GA
Experimental: The binding potency was determined using HTRF assay technology (Perkin Elmer). Compounds were serially diluted in DMSO and 0.2 μL volume was transferred to white 384-well plate.

ERα_LBD (GST) = molecular target: T2, ERα_LBD (GST) (Homo sapiens, UniProt P03372); test: IC50 measurements for binding to ERα_LBD (GST), LanthaScreen TR-FRET ERα competitive binding assay; details: Fluormone ES2 Green tracer, 60 min, read-out: ERα HTRF IC50
T2 construct: ERα_LBD (GST) protein: 4 nM; purchased ThermoFisher A15887
T2 sequence (P03372 311-547 limits assumed): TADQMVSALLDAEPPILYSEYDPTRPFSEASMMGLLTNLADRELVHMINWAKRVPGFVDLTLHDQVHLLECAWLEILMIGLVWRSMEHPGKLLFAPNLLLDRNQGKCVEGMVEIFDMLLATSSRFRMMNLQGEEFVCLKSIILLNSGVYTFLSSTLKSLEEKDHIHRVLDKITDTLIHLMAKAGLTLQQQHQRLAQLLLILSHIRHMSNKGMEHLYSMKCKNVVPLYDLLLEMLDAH
Experimental: In vitro Assay: IC50 Measurements for binding to ERα_LBD (GST)·
Final assay conditions: • 1. ERα_LBD (GST) protein: 4 nM • 2. Tb Anti-GST: 2 nM • 3. Fluormone ES2 Green tracer: 3 nM • 4. Incubation time: 60 min • 5. DMSO: 1% • 6. Assay buffer: Adding 1M DTT to Nuclear receptor Buffer K for final 5 mM DTT. • 7. ZPE: 1% DMSO • 8. HPE: 1 μM ARV_471 • 9. LanthaScreen® TR-FRET ERα Competitive Binding Assay (ThermoFisher, #A^15887)
100× Compound preparation: • 1) Cherry pick 2 μL 10 mM compound stock to column 1 of a 384 intermediate plate • 2) Add 18 μL DMSO to column 1 to dilute compound to 1 mM. • 3) Transfer 10 μL 1 mM compound to column 1 of a LDV plate. • 2) Add 6 μl DMSO to column 2-10 of the LDV plate. • 3) Compounds undergo 3-fold serial dilution (3 μL+6 μL) in DMSO. • 4) Transfer 120 nL compound solution to assay plate.
Prepare complete nuclear receptor buffer K by adding 1 M DTT to nuclear receptor buffer K for a final concentration of 5 mM DTT. Complete nuclear receptor buffer K must be prepared fresh daily. Prepare 2× protein solution using complete nuclear receptor buffer K containing 8 nM ERα_LBD (GST) and 4 nM Tb Anti-GST. Then, prepare 2× Fluormone ES2 Green tracer (6 nM) using complete nuclear receptor buffer K. Add 6 μL 2× Fluormone ES2 green tracer into a compound plate (PerkinElmer 6008289) by dragonfly with one-tips-addition. Subsequently, add 6 μL 2× protein solution into the plate. Briefly and gently mix the 384-well plate on a plate shaker and incubate at room temperature protected from light for 60 min. The plate is sealed with a cover to minimize evaporation. Read the plate at wavelengths of 520 nm and 495 nm. Calculate the TR-FRET ratio by dividing the emission signal at 520 nm by the emission signal at 495 nm. Generate a binding curve by plotting the emission ratio vs. the log [ligand]. To determine the IC50 value, fit the data using XL-fit for a sigmoidal dose-response.

ER [1] = molecular target: T3, ER (Homo sapiens, UniProt P03372); test: In-cell Western (ICW) ER degradation assay in MCF-7 cells; assay type: cell-based; details: for DC50 / ER MCF7 ICW Dmax (%): MCF-7 cells; for DC50: read-out: ER MCF7 ICW DC50
T3 construct: endogenous in cells; probably T47D or MCF-7
T3 sequence (P03372 1-595): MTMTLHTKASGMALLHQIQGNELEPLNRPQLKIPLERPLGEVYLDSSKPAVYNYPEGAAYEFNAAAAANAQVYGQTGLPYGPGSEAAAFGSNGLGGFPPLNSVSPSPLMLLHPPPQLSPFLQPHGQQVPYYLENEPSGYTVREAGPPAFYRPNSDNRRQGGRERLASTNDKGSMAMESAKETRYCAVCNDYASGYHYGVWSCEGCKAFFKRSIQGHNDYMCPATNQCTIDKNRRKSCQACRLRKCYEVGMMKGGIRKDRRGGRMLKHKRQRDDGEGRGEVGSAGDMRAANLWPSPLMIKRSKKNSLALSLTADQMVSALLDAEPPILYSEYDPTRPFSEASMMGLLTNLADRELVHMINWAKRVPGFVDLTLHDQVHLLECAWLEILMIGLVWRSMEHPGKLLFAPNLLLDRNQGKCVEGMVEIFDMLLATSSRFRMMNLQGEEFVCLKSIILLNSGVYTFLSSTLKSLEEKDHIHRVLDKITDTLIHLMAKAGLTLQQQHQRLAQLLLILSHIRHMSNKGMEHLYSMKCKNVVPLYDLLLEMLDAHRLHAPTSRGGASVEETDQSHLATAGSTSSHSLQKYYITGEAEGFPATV

ER [2] = molecular target: T3, ER; test: In-cell Western (ICW) ER degradation assay in T47D cells; assay type: cell-based; details: for Dmax: T47D, read-out: ER T47D ICW Dmax (%)
MCF-7 cells = test: CellTiter-Glo (CTG) cell proliferation assay in MCF-7 cells; assay type: cell-based; details: Homo sapiens, MCF7, 144 h, Day 6
Text: (§1) CellTiter-Glo® (CTG) assays in MCF-7 and T47D cell lines.
(§2) In vitro Assay: MCF-7 and T47D CTG assay

T47D cells = test: CellTiter-Glo (CTG) cell proliferation assay in T47D cells; assay type: cell-based; details: Homo sapiens, 144 h, Day 6
Text: as §1, §2

[3] = MCF7, MCF-7 cells, 16 hrs, read-out: ER MCF7 ICW Dmax (%)
[4] = MCF7, read-out: ER MCF7 ICW Dmax (%)

T1 sequence (Q96SW2 whole entry): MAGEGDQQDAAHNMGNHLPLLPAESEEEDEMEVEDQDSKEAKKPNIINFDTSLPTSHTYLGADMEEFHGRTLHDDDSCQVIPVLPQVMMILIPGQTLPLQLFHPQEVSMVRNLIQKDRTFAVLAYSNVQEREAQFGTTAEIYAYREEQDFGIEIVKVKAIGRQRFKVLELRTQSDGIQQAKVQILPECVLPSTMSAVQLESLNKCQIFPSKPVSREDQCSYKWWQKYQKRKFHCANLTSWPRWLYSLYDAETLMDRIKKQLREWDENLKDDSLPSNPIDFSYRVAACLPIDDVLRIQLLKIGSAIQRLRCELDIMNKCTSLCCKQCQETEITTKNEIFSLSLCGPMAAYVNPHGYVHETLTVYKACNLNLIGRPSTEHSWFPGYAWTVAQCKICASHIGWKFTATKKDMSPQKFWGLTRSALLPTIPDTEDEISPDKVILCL
T1 sequence (Q16531 whole entry partner): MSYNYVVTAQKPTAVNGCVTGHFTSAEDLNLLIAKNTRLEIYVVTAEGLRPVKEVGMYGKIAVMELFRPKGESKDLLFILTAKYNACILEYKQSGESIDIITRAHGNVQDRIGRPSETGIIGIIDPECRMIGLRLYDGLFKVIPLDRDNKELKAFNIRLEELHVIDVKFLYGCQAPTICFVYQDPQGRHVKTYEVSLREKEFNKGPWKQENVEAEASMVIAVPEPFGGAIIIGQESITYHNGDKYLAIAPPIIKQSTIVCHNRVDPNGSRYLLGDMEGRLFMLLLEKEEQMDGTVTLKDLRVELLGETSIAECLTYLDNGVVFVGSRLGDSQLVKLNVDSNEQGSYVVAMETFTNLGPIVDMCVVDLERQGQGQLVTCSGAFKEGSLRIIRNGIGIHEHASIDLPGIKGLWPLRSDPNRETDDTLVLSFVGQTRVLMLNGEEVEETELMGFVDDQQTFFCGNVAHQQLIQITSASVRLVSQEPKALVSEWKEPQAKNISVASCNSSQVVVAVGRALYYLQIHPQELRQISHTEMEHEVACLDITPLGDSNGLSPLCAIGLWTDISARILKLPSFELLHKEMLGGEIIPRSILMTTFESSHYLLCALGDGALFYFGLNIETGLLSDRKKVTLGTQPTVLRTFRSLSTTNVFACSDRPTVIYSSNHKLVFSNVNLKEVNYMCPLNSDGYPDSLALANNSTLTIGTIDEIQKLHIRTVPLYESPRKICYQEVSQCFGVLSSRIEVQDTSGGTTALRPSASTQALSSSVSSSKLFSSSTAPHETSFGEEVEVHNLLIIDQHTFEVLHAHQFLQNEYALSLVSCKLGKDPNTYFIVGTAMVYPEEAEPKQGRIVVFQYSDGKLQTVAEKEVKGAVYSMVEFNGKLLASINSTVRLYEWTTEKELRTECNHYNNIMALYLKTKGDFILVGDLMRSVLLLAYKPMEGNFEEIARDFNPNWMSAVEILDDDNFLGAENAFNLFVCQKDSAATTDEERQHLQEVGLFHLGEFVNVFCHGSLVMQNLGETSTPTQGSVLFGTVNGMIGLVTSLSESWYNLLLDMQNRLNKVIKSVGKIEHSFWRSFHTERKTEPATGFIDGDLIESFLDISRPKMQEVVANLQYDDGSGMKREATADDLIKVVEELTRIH

Row | Compound | IC50 (CRBN/DDB1) [nM] | IC50 (ERα_LBD (GST)) [nM] | Dmax (ER [1]; [3]) [%] | DC50 (ER [1]; 16 hrs) [nM] | DC50 (ER [2]; T47D cells, 16 hrs) [nM] | Dmax (ER [2]; T47D cells, 16 hrs) [%] | IC50 (MCF-7 cells) [nM] | Dmax (ER [1]; [4]) [%] | IC50 (T47D cells) [nM] | ER MCF7 ICW Dmax (%) (ER [1]; 16 hrs) | ER T47D ICW Dmax (%) (ER [2]; T47D cells, 16 hrs) | Dmax (ER [2]) [%]
1 | C[C@@H]1Cc2c(ccc3[nH]ncc23)[C@@H](c2ccc(N3CCC4(CC3)CC(CN3CCN5c6ccc7c(c6OC[C@H]5C3)CN([C@H]3CCC(=O)NC3=O)C7=O)CO4)nc2)N1CC(F)(F)F (stereo partly drawn) [Compound A22, (3S)-3-((5aR)-7-((8-(5-((6S,8R)-8-methyl-7-(2,2,2-trifluoroethyl)-6,7,8,9-tetrahydro-3H-pyrazolo[4,3-f]isoquinolin-6-yl)pyridin-2-yl)-1-oxa-8-azaspiro[4.5]decan-3-yl)methyl)-1-oxo-1,3,5,5a,6,7,8,9-octahydro-2H-pyrazino[1′,2′:4,5][1,4]oxazino[2,3-e]isoindol-2-yl)piperidine-2,6-dione] | 50 to 500 | < 10 | 50 to 75 | < 1 | < 1 | 50 to 75 | – | – | – | – | – | –
2 | C[C@@H]1Cc2c(ccc3[nH]ncc23)[C@H](c2ccc(N3CCC4(CC3)CC(CN3CCN5c6ccc7c(c6OC[C@H]5C3)CN([C@H]3CCC(=O)NC3=O)C7=O)CO4)nc2)N1CC(F)(F)F (stereo partly drawn) [Compound A21, (3S)-3-((5aR)-7-((8-(5-((6R,8R)-8-methyl-7-(2,2,2-trifluoroethyl)-6,7,8,9-tetrahydro-3H-pyrazolo[4,3-f]isoquinolin-6-yl)pyridin-2-yl)-1-oxa-8-azaspiro[4.5]decan-3-yl)methyl)-1-oxo-1,3,5,5a,6,7,8,9-octahydro-2H-pyrazino[1′,2′: 4,5][1,4]oxazino[2,3-e]isoindol-2-yl)piperidine-2,6-dione] | – | < 10 | – | < 1 | < 1 | > 75 | < 10 | > 75 | 10 to 50 | – | – | –
3 | COc1cc(N2CCC(CN3CCN4c5ccc6c(c5OCC4C3)CN(C3CCC(=O)NC3=O)C6=O)CC2)ccc1C1c2ccc3[nH]ncc3c2CC(C)N1CC(F)F (stereo in doubt) [Compound A8, (R)-3-((S)-7-((1-(4-((6R,8S)-7-(2,2-difluoroethyl)-8-methyl-6,7,8,9-tetrahydro-3H-pyrazolo[4,3-f]isoquinolin-6-yl)-3-methoxyphenyl)piperidin-4-yl)methyl)-1-oxo-1,3,5,5a,6,7,8,9-octahydro-2H-pyrazino[1′,2′:4,5][1,4]oxazino[2,3-e]isoindol-2-yl)piperidine-2,6-dione] | 500 to 5000 | ≥ 10 | – | < 1 | < 1 | – | – | – | – | A (“A”: >=75%) | A (“A”: >=75%) | –
4 | C[C@@H]1Cc2c(ccc3[nH]ncc23)[C@@H](c2ccc(N3CCC4(CC3)CC(CN3CCN5c6ccc7c(c6OC[C@H]5C3)CN([C@H]3CCC(=O)NC3=O)C7=O)C4)cn2)N1CC1(F)CC1 [Compound A4, (S)-3-((R)-7-((7-(6-((6S,8R)-7-((1-fluorocyclopropyl)methyl)-8-methyl-6,7,8,9-tetrahydro-3H-pyrazolo[4,3-f]isoquinolin-6-yl)pyridin-3-yl)-7-azaspiro[3.5]nonan-2-yl)methyl)-1-oxo-1,3,5,5a,6,7,8,9-octahydro-2H-pyrazino[1′,2′:4,5][1,4]oxazino[2,3-e]isoindol-2-yl)piperidine-2,6-dione] | < 50 | < 10 | 50 to 75 | < 1 | < 1 | > 75 | – | – | – | – | – | –
5 | C[C@@H]1Cc2c(ccc3[nH]ncc23)[C@@H](c2ccc(N3CCC4(CC3)CC(CN3CCC5(CC3)COc3cc6c(cc35)CN([C@H]3CCC(=O)NC3=O)C6=O)C4)cn2)N1CC1(F)CC1 [Compound A5, (S)-3-(1′-((7-(6-((6S,8R)-7-((1-fluorocyclopropyl)methyl)-8-methyl-6,7,8,9-tetrahydro-3H-pyrazolo[4,3-f]isoquinolin-6-yl)pyridin-3-yl)-7-azaspiro[3.5]nonan-2-yl)methyl)-7-oxo-5,7-dihydro-2H,6H-spiro[furo[2,3-f]isoindole-3,4′-piperidin]-6-yl)piperidine-2,6-dione] | 50 to 500 | < 10 | – | < 1 | < 1 | – | – | 50 to 75 | – | – | – | 50 to 75
6 | C[C@@H]1Cc2c(ccc3[nH]ncc23)C(c2ccc(N3CCC4(CC3)CC(CN3CCN5c6ccc7c(c6OC[C@H]5C3)CN([C@H]3CCC(=O)NC3=O)C7=O)C4)nc2)N1CC(F)(F)F (stereo in doubt) [Compound A25, (S)-3-((R)-7-((7-(5-((6S,8R)-8-methyl-7-(2,2,2-trifluoroethyl)-6,7,8,9-tetrahydro-3H-pyrazolo[4,3-f]isoquinolin-6-yl)pyridin-2-yl)-7-azaspiro[3.5]nonan-2-yl)methyl)-1-oxo-1,3,5,5a,6,7,8,9-octahydro-2H-pyrazino[1′,2′: 4,5][1,4]oxazino[2,3-e]isoindol-2-yl)piperidine-2,6-dione] | – | < 10 | – | < 1 | < 1 | > 75 | – | > 75 | – | – | – | –
7 | COc1cc(N2CCC(CN3CCN4c5ccc6c(c5OC[C@H]4C3)CN(C3CCC(=O)NC3=O)C6=O)CC2)ccc1[C@@H]1c2ccc3[nH]ncc3c2C[C@@H](C)N1CC(F)F (stereo partly drawn) [Compound A6, 3-((R)-7-((1-(4-((6S,8R)-7-(2,2-difluoroethyl)-8-methyl-6,7,8,9-tetrahydro-3H-pyrazolo[4,3-f]isoquinolin-6-yl)-3-methoxyphenyl)piperidin-4-yl)methyl)-1-oxo-1,3,5,5a,6,7,8,9-octahydro-2H-pyrazino[1′,2′:4,5][1,4]oxazino[2,3-e]isoindol-2-yl)piperidine-2,6-dione] | 50 to 500 | – | – | < 1 | < 1 | – | < 10 | – | < 10 | B (“B”: >50% and <75%) | B (“B”: >50% and <75%) | –
8 | C[C@@H]1Cc2c(ccc3[nH]ncc23)[C@@H](c2ccc(N3CC4(CCC(CN5CCN6c7ccc8c(c7OC[C@H]6C5)CN(C5CCC(=O)NC5=O)C8=O)CC4)C3)cn2)N1CC1(F)CC1 (stereo partly drawn) [Compound A16, (S)-3-((R)-7-((2-(6-((6S,8R)-7-((1-fluorocyclopropyl)methyl)-8-methyl-6,7,8,9-tetrahydro-3H-pyrazolo[4,3-f]isoquinolin-6-yl)pyridin-3-yl)-2-azaspiro[3.5]nonan-7-yl)methyl)-1-oxo-1,3,5,5a,6,7,8,9-octahydro-2H-pyrazino[1′,2′: 4,5][1,4]oxazino[2,3-e]isoindol-2-yl)piperidine-2,6-dione] | – | < 10 | – | < 1 | < 1 | > 75 | – | > 75 | – | – | – | –
